Assay results from a melting point compilation (Tetko et al.; mined from patent text by program, amines drawn as free bases though some values may be those of a salt).

First: C1=C(c2cccc(CNCCOc3cccc4ccoc34)c2)CCC1
Second: CN(C)Cc1cccc(-c2[nH]c3cccc4c3c2CCNC4=O)c1
The melting point of the first is lower: 126 °C for the first, 222 to 225 °C for the second.

First: Cc1cccc(C)c1NC(=O)N=C1CCCCCN1C
Second: Cc1ccccc1NC(=O)C1(C)CCCCC1
The melting point of the first is lower: 128 to 130 °C for the first, 138 °C for the second.

First: Cc1cccc(-c2nc3cccnn3c2-c2ccnc(NC(=O)N3CCCCC3)c2)c1
Second: COc1ccc(-c2nc(C(N)=O)c(N)nc2-c2ccccc2)cn1
The melting point of the first is lower: 173 to 175 °C for the first, 208 to 212 °C for the second.

First: CCO[C@@H](Cc1ccc2oc(Cc3nc(-c4ccccc4)oc3C)cc2c1)C(=O)O
Second: CC1=NC=C(c2ccc3c(c2)NC(=O)CO3)C(c2ccccc2)S1 (configuration not stated)
The melting point of the first is lower: 129 °C for the first, 187 to 189 °C for the second.

First: COc1ccc(Nc2ccnc(Nc3cc(OC)c(OC)c(OC)c3)n2)cc1
Second: Cc1cc(N)ccc1Oc1ccc(Oc2ccc(N)cc2C)cc1
The melting point of the first is higher: 210 °C for the first, 195 to 196 °C for the second.

First: Cc1cc(C(=O)O)ncc1C(c1cc(F)ccc1F)S(=O)(=O)c1ccc(Cl)cc1 (configuration not stated)
Second: O=C(O)Cc1ccc(CCNS(=O)(=O)c2ccc(F)cc2)cc1
The melting point of the first is higher: 208 to 209 °C for the first, 192 to 193 °C for the second.

Compared with `CNC(=NS(C)(=O)=O)NCCCCCc1nc(N)nc(NC(N)=NCC(F)(F)F)n1`, `CCCCCCNC(=O)c1ccc(N2N=C(C)C(=CNc3ccccc3CC)C2=O)cc1` is lower in melting point: 131 to 133 °C for the first, 62.1 °C for the second.

First: Cc1ccc2c(c1)c1c(n2Cc2ccc(F)cc2)CCCC1=O
Second: O=C1CCC(N2Cc3c(NCc4cccc(Cl)c4)cccc3C2=O)C(=O)N1 (configuration not stated)
The melting point of the first is lower: 210 °C for the first, 253 to 255 °C for the second.

First: O=c1ccn(CCO)c(Cc2cccc(F)c2)c1O
Second: Cc1cc(C(C)(C)C)c(O)c2[nH]c(Cc3ccccc3)nc12
The melting point of the first is higher: 235 to 242 °C for the first, 226 to 228 °C for the second.

First: c1ccc(CC[C@H]2CN(Cc3ccccc3)CCN2Cc2ccccc2)cc1
Second: O=C(C=Cc1cccnc1)NCCCCN1CCCN(C(c2ccccc2)c2ccccc2)CC1
The melting point of the first is lower: 86 to 90 °C for the first, 149 to 151 °C for the second.

First: COC(=O)C1CCC2(C)C(=CC(O)C3C2CCC2(C)C(O)CCC32)C1 (configuration not stated)
Second: COC(=O)C1CCC2C3CCC4CC(O)C(Br)CC4(C)C3CCC12C (configuration not stated)
The melting point of the first is lower: 150 to 152 °C for the first, 195 to 198 °C for the second.

Compared with `CCCC1CCC2C3CCc4cc(O)c(C=O)cc4C3CCC12C` (configuration not stated), `COc1ccc(C2(O)CCSCC2)cc1OC1CCCC1` is lower in melting point: 122 to 123 °C for the first, 83 to 85 °C for the second.

First: CC(C)C(=O)NC1=NC(=CCC(=O)Nc2ccc(Cl)cc2)CS1
Second: CC(C)C(=O)N1CCC(CNc2ccc(Cl)cc2C(=O)Nc2ccc(Cl)cn2)CC1
The melting point of the first is higher: 112 to 114 °C for the first, 99 to 101 °C for the second.

First: CC(C1=NC(C)(C)CO1)c1ccc(-c2ccc(F)cc2F)c(O)c1 (configuration not stated)
Second: CCCC(O)c1cc(-c2ccc(C(F)(F)F)n(C)c2=O)c(F)cc1Cl (configuration not stated)
The melting point of the first is higher: 188 to 194 °C for the first, 120 to 122 °C for the second.

First: OCc1cccc(/C=C/c2ccccc2)c1
Second: COCOc1ccc(C=C[N+](=O)[O-])cc1OCc1ccccc1
The melting point of the first is higher: 87 to 88 °C for the first, 75 to 76 °C for the second.

Compared with `COc1ccc(-n2c(CC(=O)O)c(C(=O)O)c3cc(Oc4ccc(S(C)(=O)=O)cc4)ccc32)cc1`, `CCOC(=O)C1=Cc2cc(Cl)c(Oc3ccc(OC)cc3)cc2OC1C(F)(F)F` (configuration not stated) is lower in melting point: 222 °C for the first, 116 to 117 °C for the second.

First: CCN(CC)C(=O)Cc1c(-c2ccc(Cl)cc2)nc2c(C)cc(C)nn12
Second: CCCCCCC(C(=O)O)N1Cc2cc(-c3ccccc3-c3nn[nH]n3)ccc2N1 (configuration not stated)
The melting point of the first is higher: 162 to 165 °C for the first, 113 to 120 °C for the second.

Compared with `O=C(O)COc1ccc(SCc2ccc(-c3ccc(C(F)(F)F)cn3)cc2)c2c1CCCO2`, `CCCC(=O)Nc1n[nH]c2cc(-c3ccc(OC(F)(F)F)cc3)ccc12` is higher in melting point: 178 to 179 °C for the first, 234 °C for the second.

First: COC(=O)CC=Cc1c(C(C)C)cc(C(C)C)cc1C(C)C
Second: COc1cc(CCC=CC(C)=O)ccc1OCc1ccccc1
The melting point of the first is higher: 61 to 63 °C for the first, 59.5 to 60.5 °C for the second.

First: CCc1c(F)c(F)c(-n2ncc(C#N)c2NCC(C)C(=O)O)c(F)c1F (configuration not stated)
Second: CC(=O)Nc1ccnn1-c1c(F)cc(C(F)(F)F)cc1Cl
The melting point of the first is lower: 138 to 140 °C for the first, 144 to 146 °C for the second.

Compared with `CC(C)(C)c1nc(C=O)cc(N)c1F`, `CN(C)Nc1cc(F)ccc1[N+](=O)[O-]` is lower in melting point: 129 to 130 °C for the first, 67 to 71 °C for the second.

Compared with `CC(Oc1ccc2nc(NC(=O)NCCN3CCOCC3)sc2c1)c1c(F)ccc(Cl)c1Cl` (configuration not stated), `C[C@@H](NC(=O)c1c[nH]c2ncc(-c3nn(CCO)c4cc(Cl)ccc34)nc12)C(=O)N1CC(C#N)C1` is higher in melting point: 200 °C for the first, 225 to 250 °C for the second.

Compared with `Nc1nc(-c2cc(Cl)ccc2Cl)nc(N2C[C@H](O)C[C@H]2CO)n1`, `Nc1ncc(Br)n2nc(SCc3ccccc3)nc12` is lower in melting point: 171 to 173 °C for the first, 149 to 150 °C for the second.

First: CC1=NN=C(N2N=C(c3ccc([N+](=O)[O-])cc3)c3cc4c(cc3CC2C)OCO4)SC1 (configuration not stated)
Second: Cc1nc(-c2ccc3c(c2)CCCC3)co1
The melting point of the first is higher: 203 to 204 °C for the first, 53 to 54 °C for the second.

First: Cc1c(C)c2c(c(C)c1O)CCC(C)(C(=O)N1CC(Oc3ccc(NC(=O)OC(C)(C)C)cc3)C1)O2 (configuration not stated)
Second: CCCC1(O)CCN(C)C(Cc2ccc(OC)cc2)C1(C)C (configuration not stated)
The melting point of the first is higher: 182 to 183 °C for the first, 85 to 102 °C for the second.

First: CCn1c(=O)ccn(-c2ccc(N)cc2)c1=O
Second: Nc1ccc2c(c1)C(=O)N(c1cccc(C(=O)O)c1)C2=O
The melting point of the first is lower: 191 °C for the first, 306 to 308 °C for the second.

First: O=S(=O)(Nc1ccc(-c2n[nH]c3c2Cc2ccccc2-3)cc1)c1ccccc1
Second: Cc1ccn(-c2ccc(C(=O)N3Cc4cccnc4Nc4ccccc43)c(F)c2)n1
The melting point of the first is higher: 286 to 288 °C for the first, 122 to 125 °C for the second.

First: O=C(O)c1cc(=O)c2cc3c(c(CC(O)CO)c2o1)CCCC3 (configuration not stated)
Second: Cc1ccnc(N2CCN(CCc3c(C)n4c5c(cc(Br)cc35)CCC4)CC2)c1
The melting point of the first is higher: 217 to 218 °C for the first, 200 °C for the second.

First: O=C(OCc1ccc(CO)cc1COC(=O)c1ccccc1)c1ccccc1
Second: N#CCCCCn1c(=O)c2ccccc2n(CCCCN2CCC(OC(c3ccccc3)c3ccccc3)CC2)c1=O
The melting point of the first is lower: 91 to 93 °C for the first, 119 to 121 °C for the second.

First: C1=c2cc3c(cc2Sc2ccccc21)=Cc1ccccc1S3
Second: c1ccc(CC2CCc3ccccc3N2)cc1 (configuration not stated)
The melting point of the first is higher: 276 to 280 °C for the first, 187 to 190 °C for the second.

Compared with `CC(=O)NC[C@H]1CN(c2ccc(C(=O)c3cnc4ccc(C#N)cn34)cc2)C(=O)O1`, `CC[C@H](CO)NC(=O)c1ccc(C(=O)N2CCN(c3ncccc3NC(C)C)CC2)nc1` is lower in melting point: 224 to 226 °C for the first, 85 to 88 °C for the second.

First: O=C(c1ccc(Br)cc1F)N1CCN(c2ccncc2)CC1
Second: CP(C)(=O)COC(=O)c1ccccc1Nc1ccnc2c(C(F)(F)F)cccc12
The melting point of the first is lower: 125 to 126 °C for the first, 176 °C for the second.

First: CC(=O)NNC(=O)c1[nH]c2ccccc2c1Cl
Second: CC(=O)c1ccccc1NC(C#N)c1c(Cl)cccc1Cl (configuration not stated)
The melting point of the first is higher: 253 to 255 °C for the first, 179 °C for the second.

First: CCCC1=C(C(=O)OCC)C(c2sccc2C)c2c[nH]nc2N1 (configuration not stated)
Second: CCCCc1oc2ccccc2c1C(=O)NCc1ccc2c(-c3ccc(Cl)cc3)c(OCc3nnn[nH]3)ccc2c1
The melting point of the first is lower: 125 °C for the first, 208 to 211 °C for the second.

First: O=C(O)c1snnc1C1CC1
Second: CC1(C)C(=O)N(CC#CI)C(=O)N1Cc1ccccc1
The melting point of the first is higher: 158 to 159 °C for the first, 109 to 112 °C for the second.

Compared with `COc1ccc(/C=C/c2cc(/C=C/c3ccc4[nH]ccc4c3)n[nH]2)cc1OCc1ccccn1`, `N#CN=c1[nH]c2cc(Cl)c(Cl)c([N+](=O)[O-])c2[nH]c1=O` is higher in melting point: 109 to 118 °C for the first, 280 to 285 °C for the second.
